Measurements: patent US20040106148A1, “Polypeptides” (priority 2000, published 2004)

Assays:
[1] = system: GST-DAPP1; conditions: control; cited from earlier work
[2] = target: T1, mouse TAPP2 C-terminal PH domain (residues 174 to 425), GST fusion (Mus musculus, UniProt Q9ERS5); experiment: Protein-lipid overlay; assay type: binding; conditions: protein-lipid overlay (FIG. 2)
T1 construct: made in house; host or cells: human embryonic kidney 293 cells (pEBG-2T)
Method: FIG. 2. Phosphoinositide binding properties of the novel PH domains. The ability of the indicated GST fusion proteins to bind a variety of phosphoinositides was analysed using a protein-lipid overlay. Serial dilutions of the indicated phosphoinositides (100 pmol, 50 pmol, 25 pmol, 12.5 pmol, 6.3 pmol, 3.1 pmol and 1.6 pmol) were spotted onto a nitrocellulose membranes which were then incubated with the purified GST fusion proteins. The membranes were washed and the GST-fusion proteins bound to the membrane by virtue of their interaction with lipid were detected using a GST antibody. A representative of at least 3 separate experiments carried out is shown.
(§1) FIG. 4. Comparison of the phosphoinositide binding properties of the N-terminal and C-terminal PH domains of TAPP1 and TAPP2. The ability of wild type and mutant forms of full length (FL) and isolated N-terminal (NT) and C-terminal (CT) PH domains of TAPP1 and TAPP2 GST-fusion proteins to interact with phosphoinositides were analysed using a protein-lipid overlay. Serial dilutions of the indicated phosphoinositides (100 pmol, 50 pmol, 25 pmol, 12.5 pmol, 6.3 pmol, 3.1 pmol and 1.6 pmol) were spotted onto a nitrocellulose membrane which was then incubated with the indicated purified GST fusion proteins. The membranes were washed and the GST-fusion proteins bound to the membrane by virtue of their interactions with lipid were detected using a GST antibody. A representative experiment of three is shown. The isolated N-terminal PH domain of human TAPP1 comprises residues 1 to 147, the isolated C-terminal PH domain of human TAPP1 comprises residues 95 to 404, the isolated N-terminal PH domain of mouse TAPP2 comprises residues 1 to 131 and the isolated C-terminal PH of mouse TAPP2 comprises residues 174 to 425.
Protein-Lipid overlay. To assess the phosphoinositide binding properties of each PH domain, a protein-lipid overlay assay was performed using the GST fusion proteins as described previously. […] The membrane was blocked in 3% (by mass) fatty acid-free BSA in TBST (50 mM Tris/HCl pH 7.5, 150 mM NaCl and 0.1% Tween-20 (by vol) for lh. The membrane was then incubated overnight at 4° C. with gentle agitation in the same solution containing 0.2 μg/ml of the indicated GST fusion protein. The membranes were washed 6 times over 30 min in TBST and then incubated for 1 h with 1/1000 dilution of anti-GST monoclonal antibody (Sigma). The membranes were washed as before, then incubated for 1 h with 1/5000 dilution of anti-mouse-HRP conjugate (Pierce). Finally, the membranes were washed 12 times over 1 h in TBST and the GST-fusion protein bound to the membrane by virtue of its interaction with phospholipid was detected by enhanced chemiluminescence.

[3] = target: T1, mouse TAPP2 C-terminal PH domain (residues 174 to 425), GST fusion; experiment: Surface plasmon resonance (BIACore), GST fusion binding to phosphoinositide in supported lipid monolayer; conditions: read-out: apparent Kd
Excerpt: Cloning of PH domains and preparation of expression constructs. All the human and mouse EST's were obtained from the I.M.A.G.E. Consortium and sequenced. The plant EST (accession number T04439) encoding a full length clone of AtPH1 was obtained from the Arabidopsis Biological Research. Centre (Ohio University). The sequence of each EST was verified and the full length PH domain of each EST was amplified by PCR using the Hi-fidelity PCR system with primers designed to incorporate a Kozak site, an initiating ATG codon followed by a myc epitope tag and a stop codon after the PH domain. […]
Kinetic analyses of the interactions between the GST PH domain fusions and the polyphosphoinositides were made using surface plasmon resonance based procedures as described previously, with the following modifications. […] Data were analysed using the bimolecular interaction model and the global fitting feature of the BIAevaluation 3 software for several sensorgrams at different protein concentrations. […] The relative binding affinities of each protein relative to the binding of full length GST-TAPP1 to PtdIns(3,4)P2 were also calculated.

[4] = target: human TAPP1 C-terminal PH domain, mutant W281L (Trp281 to Leu), GST fusion (Homo sapiens, UniProt Q9HB21, W280L); experiment: Protein-lipid overlay; assay type: binding; conditions: FIG. 4B
human TAPP1 C-terminal PH domain, mutant W281L (Trp281 to Leu), GST fusion, sequence (Q9HB21 95-404 W280L): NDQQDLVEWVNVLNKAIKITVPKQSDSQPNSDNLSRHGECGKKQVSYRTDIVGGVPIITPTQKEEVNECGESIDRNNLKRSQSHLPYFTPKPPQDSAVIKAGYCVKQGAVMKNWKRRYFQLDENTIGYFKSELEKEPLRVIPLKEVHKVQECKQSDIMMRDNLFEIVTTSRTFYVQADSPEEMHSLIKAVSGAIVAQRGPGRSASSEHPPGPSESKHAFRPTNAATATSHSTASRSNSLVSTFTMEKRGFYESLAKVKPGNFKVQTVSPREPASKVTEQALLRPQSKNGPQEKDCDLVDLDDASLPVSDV
Method: as §1
Protein-Lipid overlay. To assess the phosphoinositide binding properties of each PH domain, a protein-lipid overlay assay was performed using the GST fusion proteins as described previously. Briefly, 1 μl of lipid solution containing 1-100 pmol of phospholipids dissolved in a mixture of choroform:methanol:water (1:2:0.8) was spotted onto Hybond-C extra membrane and allowed to dry at room temperature for 1 h. The membrane was blocked in 3% (by mass) fatty acid-free BSA in TBST (50 mM Tris/HCl pH 7.5, 150 mM NaCl and 0.1% Tween-20 (by vol) for lh. The membrane was then incubated overnight at 4° C. with gentle agitation in the same solution containing 0.2 μg/ml of the indicated GST fusion protein. The membranes were washed 6 times over 30 min in TBST and then incubated for 1 h with 1/1000 dilution of anti-GST monoclonal antibody (Sigma). The membranes were washed as before, then incubated for 1 h with 1/5000 dilution of anti-mouse-HRP conjugate (Pierce). Finally, the membranes were washed 12 times over 1 h in TBST and the GST-fusion protein bound to the membrane by virtue of its interaction with phospholipid was detected by enhanced chemiluminescence.

T1 sequence (Q9ERS5 174-425): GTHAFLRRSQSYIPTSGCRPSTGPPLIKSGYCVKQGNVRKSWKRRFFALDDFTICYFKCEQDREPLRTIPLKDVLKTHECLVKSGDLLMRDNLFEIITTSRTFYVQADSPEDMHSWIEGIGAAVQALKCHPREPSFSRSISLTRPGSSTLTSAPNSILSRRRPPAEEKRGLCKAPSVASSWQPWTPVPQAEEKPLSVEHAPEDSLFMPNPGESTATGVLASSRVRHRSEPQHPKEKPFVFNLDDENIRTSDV

phosphoinositide binding [2]: interacted
Kd [3]: 30 nM
effect of mutation on interaction [4]: abolished the interaction
Compound: CCCCCCCCCCCCCCCC(=O)OC[C@H](COP(=O)(O)O[C@H]1[C@H](O)[C@@H](O)[C@H](OP(=O)(O)O)[C@@H](OP(=O)(O)O)[C@H]1O)OC(=O)CCCCCCCCCCCCCCC [PtdIns(3,4)P2]
phosphoinositide binding [1]: binds
